# Laboratory results from ChEMBL document CHEMBL1255311, “Evaluation of a 2-pyridone, KRQ-10018, against Mycobacterium tuberculosis in vitro and in vivo” (Antimicrob Agents Chemother, 2008).
# Key:
# Escherichia coli = experiment: Antimicrobial activity against Escherichia coli ATCC 25922 by broth macrodilution method; type: functional
# [1] = system: Mycobacterium tuberculosis; experiment: Antimicrobial activity against Mycobacterium tuberculosis Erdman injected into gamma interferon gene knockout C57BL/6 mouse assessed as bacterial load in lung of mouse at 100 mg/kg measured 9 days post drug treatment; type: functional
# [2] = system: Mycobacterium tuberculosis; experiment: Antimicrobial activity against Mycobacterium tuberculosis Erdman injected into gamma interferon gene knockout C57BL/6 mouse assessed as bacterial load in spleen of mouse at 100 mg/kg measured 9 days post drug treatment; type: functional
# [3] = Oral bioavailability in mouse at 300 mg/kg, po measured after 30 mins; type: ADME, organism-based; conditions: in vivo, read-out: Drug uptake
# [4] = system: Mycobacterium tuberculosis; experiment: Antimicrobial activity against Mycobacterium tuberculosis H37Rv at assessed as growth inhibition at […] following 24 days oxygen depletion by Wayne method relative to control; type: functional; parameters: scale not given: the % may be the effect or the level left
# [5] = system: Mycobacterium tuberculosis; experiment: Antimicrobial activity against Mycobacterium tuberculosis Erdman injected into gamma interferon gene knockout C57BL/6 mouse assessed as bacterial load in lung of mouse at 300 mg/kg measured 9 days post drug treatment; type: functional
# [6] = system: Mycobacterium tuberculosis; experiment: Antimicrobial activity against Mycobacterium tuberculosis H37Rv by macrodilution method; type: functional
# [7] = system: Mycobacterium tuberculosis; experiment: Antimicrobial activity against Mycobacterium tuberculosis Erdman injected into gamma interferon gene knockout C57BL/6 mouse assessed as bacterial load in spleen of mouse at 300 mg/kg measured 9 days post drug treatment; type: functional
# [8] = Oral bioavailability in mouse at 300 mg/kg, po measured after 2 hrs; type: ADME, organism-based; conditions: in vivo, read-out: Drug uptake
# [9] = system: Mycobacterium tuberculosis; experiment: Antimicrobial activity against Mycobacterium tuberculosis H37Rv by alamar blue assay; type: functional
# Staphylococcus aureus = experiment: Antimicrobial activity against Staphylococcus aureus ATCC 29213 by broth macrodilution method; type: functional
# Pseudomonas aeruginosa = experiment: Antimicrobial activity against Pseudomonas aeruginosa ATCC 27853 by broth macrodilution method; type: functional
# [10] = Oral bioavailability in mouse at 25 mg/kg, po measured after 30 mins; type: ADME, organism-based; conditions: in vivo, read-out: Drug uptake
# [11] = Oral bioavailability in mouse at 25 mg/kg, po measured after 2 hrs; type: ADME, organism-based; conditions: in vivo, read-out: Drug uptake
# [12] = system: Mycobacterium tuberculosis; experiment: Antimicrobial activity against Mycobacterium tuberculosis Erdman injected into gamma interferon gene knockout C57BL/6 mouse assessed as bacterial load in lung of mouse at 25 mg/kg measured 9 days post drug treatment; type: functional
# [13] = system: Mycobacterium tuberculosis; experiment: Antimicrobial activity against Mycobacterium tuberculosis Erdman injected into gamma interferon gene knockout C57BL/6 mouse assessed as bacterial load in spleen of mouse at 25 mg/kg measured 9 days post drug treatment; type: functional
# [14] = Mycobacterium tuberculosis, H37Rv, read-out: MIC
smiles,measurement,setting,value
Cc1c(N2CC3=CCCN[C@H]3C2)c(F)cn2c(=O)c(C(=O)O)cc(C3CC3)c12,MIC,Escherichia coli,< 0.015 µg/mL
same,log10cfu,[1],7.25
same,log10cfu,[2],5.92
same,concentration at 0.5 h,[3],> 13100 ng/mL
same,Activity,[4],1.7%
same,log10cfu,[5],6.13
same,MIC,[6],0.041 µg/mL
same,log10cfu,[7],4.91
same,concentration at 2 h,[8],1640 ng/mL
same,MIC,[9]; [14],< 0.025 µg/mL
same,MIC,Staphylococcus aureus,< 0.015 µg/mL
same,MIC,Pseudomonas aeruginosa,< 0.015 µg/mL
O=C(O)c1cn(C2CC2)c2cc(N3CCNCC3)c(F)cc2c1=O [CIPROFLOXACIN],Activity,[4],83%
COc1c(N2CCNC(C)C2)c(F)cc2c(=O)c(C(=O)O)cn(C3CC3)c12 (configuration not stated) [GATIFLOXACIN],Activity,[4],41%
NNC(=O)c1ccncc1 [ISONIAZID],concentration at 0.5 h,[10],> 13100 ng/mL
same,concentration at 2 h,[11],1640 ng/mL
same,log10cfu,[12],5.8
same,Activity,[4],70%
same,log10cfu,[13],3.14
same,MIC,[9],0.041 µg/mL
same,MIC,[9]; [14],0.048 µg/mL
Cc1ncc([N+](=O)[O-])n1CCO [METRONIDAZOLE],Activity,[4],36%
COc1c(N2C[C@@H]3CCCN[C@@H]3C2)c(F)cc2c(=O)c(C(=O)O)cn(C3CC3)c12 [MOXIFLOXACIN],concentration at 0.5 h,[3],19600 ng/mL
same,Activity,[4],2.5%
same,log10cfu,[5],2.37
same,log10cfu,[7],2.43
same,concentration at 2 h,[8],9600 ng/mL
same,MIC,[9],0.1 µg/mL
same,MIC,[9]; [14],0.12 µg/mL
CO[C@H]1/C=C/O[C@@]2(C)Oc3c(C)c(O)c4c(O)c(c(/C=N/N5CCN(C)CC5)c(O)c4c3C2=O)NC(=O)/C(C)=C\C=C\[C@H](C)[C@H](O)[C@@H](C)[C@@H](O)[C@@H](C)[C@H](OC(C)=O)[C@@H]1C [RIFAMPIN],Activity,[4],5.6%
CO[C@H]1/C=C/O[C@@]2(C)Oc3c(C)c(O)c4c(O)c(c(/C=N/N5CCN(C6CCCC6)CC5)c(O)c4c3C2=O)NC(=O)/C(C)=C\C=C\[C@H](C)[C@H](O)[C@@H](C)[C@@H](O)[C@@H](C)[C@H](OC(C)=O)[C@@H]1C [RIFAPENTINE],Activity,[4],2.5%
CN[C@@H]1[C@H](O[C@H]2[C@H](O[C@H]3[C@H](O)[C@@H](O)[C@H](N=C(N)N)[C@@H](O)[C@@H]3N=C(N)N)O[C@@H](C)[C@]2(O)C=O)O[C@@H](CO)[C@H](O)[C@H]1O [STREPTOMYCIN],Activity,[4],4.2%
